The target in test [1] is T1, human VR1 (Homo sapiens, UniProt Q8NER1).
T1 construct: expressed in transfected cells; host or cells: HEK293
Kind of test: Human VR1 [3H] RTX binding assay. To be noted: 3H-RTX binding; for Ki: hVR1, read-out: 3H-RTX binding assay Ki hVR1; for inhibition at 1 µM: compound at 1 μM. The method in brief:
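Membranes from HEK293 cells transfected with human VR1, about 120 μg protein/ml, incubated with [3H] RTX in HEPES buffer pH 7.4 with 0.25 mg/mL fatty acid-free BSA for 60 min at 37° C. Bound radioactivity measured by scintillation counting. Non-specific binding defined with 200 nM unlabeled RTX.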

Test [2] concerns the target T1, human VR1. Kind of test: Human VR1 functional assay (intracellular Ca++, FLIPR, capsaicin challenge). It is filed as cell-based. The method, then:
The functional activity of the test compounds was determined by measuring changes in intracellular calcium concentration using a Ca^++-sensitive fluorescent dye and FLIPR™ technology.
EC50 or IC50 values were determined from dose-response studies.

Test [3] concerns carrageenan paw-induced thermal hyperalgesia. Kind of test: Carrageenan Paw-induced Thermal Hyperalgesia. It is filed as in vivo, mice or rats. To be noted: read-out: % Recovery; for inhibition in vivo at 30 mg/kg: 30 mg/kg po. For orientation: The carrageenan paw model is a standard test of acute inflammation.
Setting [4] is: FLIPR functional assay IC50 hVR1 60 min, 60 min.
Where [5] appears, read: hVR1, capsaicin challenge, read-out: FLIPR functional assay IC50 hVR1.

The structures appear in SMILES notation. Like-named read-outs stand apart in the source and are kept apart here.

T1 sequence (Q8NER1 whole entry): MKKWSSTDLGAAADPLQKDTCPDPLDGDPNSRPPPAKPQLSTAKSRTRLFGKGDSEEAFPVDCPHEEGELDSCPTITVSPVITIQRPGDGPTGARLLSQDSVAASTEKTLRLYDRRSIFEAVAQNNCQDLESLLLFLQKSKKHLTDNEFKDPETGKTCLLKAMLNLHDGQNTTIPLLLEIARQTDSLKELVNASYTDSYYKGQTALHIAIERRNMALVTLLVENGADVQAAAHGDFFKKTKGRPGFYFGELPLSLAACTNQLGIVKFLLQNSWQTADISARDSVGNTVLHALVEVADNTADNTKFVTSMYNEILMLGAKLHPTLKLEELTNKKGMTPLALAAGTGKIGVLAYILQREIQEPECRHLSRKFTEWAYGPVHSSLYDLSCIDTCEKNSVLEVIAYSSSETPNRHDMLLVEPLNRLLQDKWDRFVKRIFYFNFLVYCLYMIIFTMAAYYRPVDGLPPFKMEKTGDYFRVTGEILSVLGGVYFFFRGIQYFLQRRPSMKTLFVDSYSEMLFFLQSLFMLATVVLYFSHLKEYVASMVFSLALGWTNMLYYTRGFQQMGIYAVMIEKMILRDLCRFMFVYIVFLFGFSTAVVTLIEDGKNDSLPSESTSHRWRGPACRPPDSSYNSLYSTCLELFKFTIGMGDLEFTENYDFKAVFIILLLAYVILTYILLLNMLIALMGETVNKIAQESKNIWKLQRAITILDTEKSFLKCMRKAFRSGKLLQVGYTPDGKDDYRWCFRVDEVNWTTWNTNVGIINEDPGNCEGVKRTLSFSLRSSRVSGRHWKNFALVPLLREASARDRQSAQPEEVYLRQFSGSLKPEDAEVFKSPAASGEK

A word on the Ki: it is a dissociation constant, usually derived from enzyme kinetics or from competition with a known ligand. Broadly, the IC50 is the concentration at which inhibition is half-maximal. Take `CCC(C)(C)c1ccc(CCC(=O)Nc2cnc3ccccc3c2)cc1` [Example 14, 3-[4-(1,1-Dimethyl-propyl)-phenyl]-N-quinolin-3-yl-propionamide]: at human VR1 [1], the Ki is 5.24 nM. Also, the values for the IC50 at human VR1 [2] (setting [4]) and at human VR1 [2] (setting [5]) were 30 nM and 36.7 nM, respectively. Moreover, the inhibition in vivo at 30 mg/kg in test [3] amounted to 47%.

`CN(CC1CCCCC1)c1ccc(CCC(=O)Nc2cnc3ccccc3c2)cc1` [Example 35, 3-[4-(Cyclohexylmethyl-methyl-amino)-phenyl]-N-quinolin-3-yl-propionamide]: the Ki at human VR1 [1] was 81.5 nM. The IC50 against human VR1 [2] (setting [4]) came out at 390 nM; on human VR1 [2] (setting [5]), 260 nM. Besides, in test [3] (20 mg/kg po), the inhibition in vivo at 20 mg/kg turned out to be 87%.

Consider `CCCCCN(C)c1ccc(CCC(=O)Nc2cnc3ccccc3c2)cc1` [Example 37, 3-[4-(Methyl-pentyl-amino)-phenyl]-N-quinolin-3-yl-propionamide], for which the Ki on human VR1 [1] was found to be 178 nM. Further, the figures for the IC50 against human VR1 [2] (setting [4]) and at human VR1 [2] (setting [5]) were 190 nM and 1100 nM, respectively. In addition, the inhibition in vivo at 30 mg/kg in test [3] is 58%.

For `O=C(C=Cc1ccc(Cl)c(C(F)(F)F)c1)Nc1cnc2ccccc2c1` [Example 56, 3-(4-Chloro-3-trifluoromethyl-phenyl)-N-quinolin-3-yl-acrylamide], the inhibition in vivo at 10 mg/kg in test [3] (10 mg/kg po) was found to be 58%.

With `CC(C)(C)c1ccc(C=CC(=O)Nc2cnc3ccccc3c2Cl)cc1` [Example 82, 3-(4-tert-Butyl-phenyl)-N-(4-chloro-quinolin-3-yl)-acrylamide], the inhibition in vivo at 10 mg/kg in test [3] (10 mg/kg po) was 70%.

For orientation: inhibition means the drop in the measured response relative to a control, in per cent. As to `CN(CCc1ccccc1)c1ccc(C(=O)Nc2cnc3ccccc3c2)cc1` [Example 89, 4-(Methyl-phenethyl-amino)-N-quinolin-3-yl-benzamide], at human VR1 [1], the inhibition at 1 µM came out at 102% and the Ki is 27.3 nM. The compound also showed an IC50 against human VR1 [2] (setting [4]) of 72 nM. Moreover, the half-maximal inhibitory concentration (IC50) at human VR1 [2] (setting [5]) turned out to be 1900 nM. Besides, the inhibition in vivo at 10 mg/kg in test [3] (10 mg/kg po) worked out at 42%.

As to `CCCCCN(C)c1ccc(C(=O)Nc2cnc3ccccc3c2)cc1` [Example 154, 4-(Methyl-pentyl-amino)-N-quinolin-3-yl-benzamide], the inhibition in vivo at 10 mg/kg in test [3] (10 mg/kg sc) came out at 83%.

For the compound `O=C(Nc1cnc2ccccc2c1)c1ccc(N2CCC(Cc3ccccc3)CC2)cc1` [Example 180, 4-(4-Benzyl-piperidin-1-yl)-N-quinolin-3-yl-benzamide], on human VR1 [1], the inhibition at 1 µM came out at 99% and the Ki was determined as 17.6 nM. 357 nM corresponded to half-maximal inhibition at human VR1 [2] (setting [4]) (IC50). In addition, in test [3] (10 mg/kg po), the inhibition in vivo at 10 mg/kg came to 64%.

With `CCCCCN1CCc2cc(C(=O)Nc3cnc4ccccc4c3)ccc21` [Example 227, 1-Pentyl-2,3-dihydro-1H-indole-5-carboxylic acid quinolin-3-ylamide], the inhibition at 1 µM at human VR1 [1] came out at 98%. Moreover, at human VR1 [1], the Ki stood at 24.1 nM. For the same compound, the IC50 amounted to 106 nM against human VR1 [2] (setting [4]) and 84 nM at human VR1 [2] (setting [5]). Moreover, in test [3] (10 mg/kg po), the inhibition in vivo at 10 mg/kg amounted to 52%.
